# Assay results taken from patent US7572606B1 (Nereus Pharmaceuticals, Inc., priority 2005, dated 2009).
# “Also recorded” adds a separate entry of the source. Like-named read-outs stand apart in the source and are kept apart here.
# What was measured:
# [1] = system: 60 human tumor cell lines; assay: NCI screening panel, values over all cell lines; type: cell-based
# DU 145 = assay: Cell growth inhibition, resazurin, 48 h; type: cell-based, human
# HEK293 = assay: Cell growth inhibition, resazurin, 48 h; type: cell-based; conditions: Homo sapiens; HEK293, 48 h drug exposure
# MIA PaCa-2 = assay: Cell growth inhibition, resazurin, 48 h; type: cell-based; conditions: Homo sapiens; MIA PaCa-2, 48 h drug exposure
# Jurkat = assay: Cytotoxicity against Jurkat cells; type: cell-based, human
# CCD-27sk = assay: Cytotoxic activity, 48 h, normal fibroblasts; type: cell-based; conditions: CCD-27sk normal human fibroblasts
# NF-κB/Luc 293 cells = assay: Viability of reporter cells, resazurin, 24 hr; type: cell-based, human; conditions: at the EC50 concentration of the luciferase assay
# [2] = system: IκBα in HEK293 cells and NF-κB/Luc 293 reporter clone; assay: Western blot of phosphorylated and total IκBα; type: cell-based, human; conditions: 50 and 500 nM, 1 hour pretreatment, TNF-α 30 minutes
# Procedure: Endogenous protein levels were assessed in both HEK293 cells and the NF-κB/Luc 293 reporter clone.
# Antibodies against total and phosphorylated forms of IκBα were used to determine the endogenous level of each protein and anti-Tubulin antibody was used to confirm equal loading of protein.
# PARP in Jurkat cells = assay: PARP cleavage, western blot; type: cell-based, human; conditions: 100 nM Salinosporamide A 2-24 hrs; […] nM Staurosporine 4 hrs
# [3] = system: PARP and Pro-Caspase 3 in RPMI 8226 cells; assay: PARP and Pro-Caspase 3 cleavage, western blot; type: cell-based, human; conditions: 100 nM for 0, 8 or 24 hours; varying concentrations for 8 hours
# Procedure: Total protein lysates were made and 20 μg of the lysates were then resolved under reducing/denaturing conditions and blotted onto nitrocellulose. The blots were then probed with anti-PARP or anti-caspase 3 antibodies followed by stripping and reprobing with an anti-actin antibody.
# 25 μg of the lysates were then resolved under reducing/denaturing conditions and blotted onto nitrocellulose. The blots were then probed with anti-PARP or anti-caspase 3 antibodies followed by stripping and reprobing with an anti-actin antibody.
# [4] = Maximum Tolerated Dose (MTD) determination; type: in vivo, female BALB/c mice
# Excerpt: In vivo studies were designed to determine the MTD of Salinosporamide A when administered intravenously to female BALB/c mice.
# Animals were observed daily for clinical signs and were weighed individually twice weekly until the end of the experiment (maximum of 14 days after the last day of dosing).
# LPS-induced plasma TNF = assay: Inhibition of in vivo LPS-induced TNF; parameters: species or system male Swiss Webster mice; conditions: 0.125 or […] i.v., 30 minutes post-LPS (2 mg/kg i.p.)
# Procedure: The following methods outline the protocol design for these studies.
# Male Swiss Webster mice (12/group weighing 20-25 g) were injected with LPS (2 mg/kg) by the i.p. route. […] Ninety minutes after LPS injection, the mice were anesthetized with Isoflurane and bled by cardiac puncture to obtain plasma. Remaining blood pellet was then resuspended in 500 μL of PBS to wash away residual serum proteins and centrifuged again. Supernatant was removed and blood pellet frozen for analysis of proteasome inhibition in packed whole blood lysate.
# Animals were dosed i.v. with 4 ml/kg. A vehicle control solution was also prepared by making the same 1:160 dilution with 100% DMSO into 10% solutol solution giving a final concentration of 9.375% solutol in water and 0.625% DMSO. Measurements of plasma TNF were performed using the Biosource mTNF Cytoset kit (Biosource Intl., Camarillo, Calif.; catalog # CMC3014) according to manufacturer's instructions. Samples were diluted 1:60 for the assay.
# [5] = system: VEGF-induced migration of multiple myeloma cells; assay: Transwell migration assay; type: cell-based
# Procedure: The compounds disclosed herein inhibit angiogenesis. […] The other compounds disclosed herein are tested in a transwell migration assay and inhibit migration.
# RAW264.7 cells = conditions: 12 nM, compound alone
# [6] = system: MM.1R and Dox-40 cell lines, patient-derived multiple myeloma cells
# [7] = target: caspase-like (PGPH) activity of rabbit muscle 20S proteasome (Oryctolagus cuniculus, UniProt A0A5F9DQW2); assay: In vitro inhibition of 20S proteasome, Z-LLE-AMC; conditions: read-out: EC50 Caspase-like (PGPH); purified rabbit 20S proteasome, Z-LLE-AMC
# Sequence of caspase-like (PGPH) activity of rabbit muscle 20S proteasome (A0A5F9DQW2 1-212): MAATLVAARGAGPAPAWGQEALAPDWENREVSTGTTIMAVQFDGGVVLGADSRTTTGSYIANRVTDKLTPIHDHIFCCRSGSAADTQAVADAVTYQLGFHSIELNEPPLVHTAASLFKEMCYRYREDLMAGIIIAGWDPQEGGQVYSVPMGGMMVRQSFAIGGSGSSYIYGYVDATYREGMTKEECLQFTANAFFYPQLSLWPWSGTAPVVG
# [8] = target: T1, chymotrypsin-like activity of rabbit muscle 20S proteasome (Oryctolagus cuniculus, UniProt G1T4Q9); assay: In vitro inhibition of 20S proteasome, suc-LLVY-AMC
# T1 sequence (G1T4Q9 1-263): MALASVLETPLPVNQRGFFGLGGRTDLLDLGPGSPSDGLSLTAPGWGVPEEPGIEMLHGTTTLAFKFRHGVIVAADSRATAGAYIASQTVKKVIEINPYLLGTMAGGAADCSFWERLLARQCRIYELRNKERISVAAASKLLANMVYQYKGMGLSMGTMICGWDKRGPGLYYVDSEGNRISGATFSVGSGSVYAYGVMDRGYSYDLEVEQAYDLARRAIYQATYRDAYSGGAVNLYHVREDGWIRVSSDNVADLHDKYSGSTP
# [9] = mean graph midpoint over all cell lines
compound,measurement,setting,value
"C[C@@]12OC(=O)[C@]1([C@@H](O)[C@@H]1C=CCCC1)NC(=O)[C@@H]2CCCl [Formula II-16, Salinosporamide A]",GI50,"[1]; Homo sapiens, read-out: mean GI50 value",< 10 nM
same,Deka Log10 G150,[1]; log units,0.00
same,Deka Log10 TGI,[1]; log units,1.21
same,Range Log10 G150,[1]; log units,0.00
same,Range Log10 TGI,[1]; log units,4.00
same,MG_MID Log10 G150,[1]; [9],-8.00 Molar
same,MG_MID Log10 TGI,[1]; [9],-6.79 Molar
same,% cytotoxicity,DU 145; DU 145,75 ± 4%
same,EC50,"DU 145; Homo sapiens, DU 145, 48 h drug exposure",37 ± 10 nM
same,EC50,HEK293,47 nM
same,EC50,MIA PaCa-2,46 nM
same,EC50,"Jurkat; Homo sapiens, Jurkat",10 nM
same,% max cell kill,Jurkat; Jurkat cells,97%
same,EC50,CCD-27sk,196 nM
same,cell viability,NF-κB/Luc 293 cells,did not affect cell viability
same,total IκBα and phospho-IκBα level,[2],reduced the degradation of total IκBα but also retained the phospho-IκBα level
same,PARP cleavage,PARP in Jurkat cells,cleavage of PARP within the Jurkat cells in a time-dependent fashion
same,cleavage of PARP and Pro-Caspase 3,[3],cleavage of PARP and Pro-caspase 3 in a time-dependent manner; also recorded: dose-dependent cleavage of both PARP and Pro-Caspase 3
same,well tolerated dose,[4]; i.v. daily for five consecutive days,up to 0.1 mg/kg
same,tolerated dose,[4]; single intravenous dose,up to 0.25 mg/kg
same,reduction of LPS-induced plasma TNF levels,LPS-induced plasma TNF,approximately 65%
same,VEGF-induced migration of multiple myeloma cells,[5],blocked vascular endothelial growth-factor (VEGF)-induced migration of multiple myeloma cells
same,viability,RAW264.7 cells,96%
same,activity against drug resistant multiple myeloma,[6],active against MM.1R and Doxorubicin-resistant Dox-40 cell lines
C[C@H]1C(=O)N[C@@]2([C@@H](O)[C@@H]3C=CCCC3)C(=O)O[C@@]12C [Formula II-20],EC50,[7],1420 nM
same,EC50,[8],2 to 11 nM
same,EC50,"[8]; read-out: EC50 Chymotrypsin-like, purified rabbit 20S proteasome, suc-LLVY-AMC",7.7 ± 3 nM
